Consider one compound from ChEMBL document CHEMBL6120948, “Design, Synthesis, and Biological Evaluation of Lysine-Stapled Peptide Inhibitors of p53-MDM2/MDMX Interactions with Potent Antitumor Activity In Vivo” (J Med Chem, 2024).

SMILES strings stand for the structures.

Data set [1] deals with HCT-116. Nature of the data set: Induction of cell cycle arrest in human HCT-116 cells assessed as accumulation at G1 phase at 10 uM incubated for 24 hrs by PI staining based flow cytometry (reference value: 50.7 %). It is filed as functional.
A short description of data set [2]: Antiproliferative activity against HEK293T cells incubated for 72 hrs by MTT assay. The format is toxicity, cell-based, HEK-293T. Particulars: human. (In general: Tetrazolium assays rely on reduction of a dye to a coloured formazan, in cell work by metabolically active cells.)
Data set [3] is described as follows: Antiproliferative activity against human SJSA-1 cells expressing wild-type p53 incubated for 72 hrs by MTT assay. The format is functional, cell-based. The note with it: SJSA-1, 72 h.
Data set [4] has as its system HCT-116. The data set is described as follows: Induction of apoptosis in human HCT-116 cells at 50 uM incubated for 48 hrs by Annexin V-FITC/PI staining based flow cytometry relative to control. The format is functional. On the technique in general: Flow cytometry measures light scatter and fluorescence of single cells or particles in a stream.
Data set [5] has as its system HCT-116. The data set is described as follows: Induction of cell cycle arrest in human HCT-116 cells assessed as accumulation at G2 phase at 10 uM incubated for 24 hrs by PI staining based flow cytometry (reference value: 17.5 %). It is filed as functional.
Data set [6] concerns HCT-116. Nature of the data set: Induction of cell cycle arrest in human HCT-116 cells assessed as accumulation at G2 phase at 20 uM incubated for 24 hrs by PI staining based flow cytometry (reference value: 17.5 %). The format is functional.
Data set [7] relates to A549. The data set is described as follows: Antiproliferative activity against human A549 cells expressing wild-type p53 incubated for 72 hrs by MTT assay. The format is functional, cell-based. Particulars: A549, 72 h.
The nature of data set [8]: Stability of compound in 50 percent human serum assessed as half life measured for 24 hrs by HPLC analysis. The format is ADME, cell-free. The note with it: 50% human serum.
In data set [9] the test system is HCT-116. Nature of the data set: Induction of cell cycle arrest in human HCT-116 cells assessed as accumulation at S phase at 5 uM incubated for 24 hrs by PI staining based flow cytometry (reference value: 29.4 %). The format is functional.
Data set [10] relates to HCT-116. The data set is described as follows: Induction of apoptosis in human HCT-116 cells at 100 uM incubated for 48 hrs by Annexin V-FITC/PI staining based flow cytometry relative to control. The format is functional.
In data set [11] the test system is HepG2. The data set is described as follows: Antiproliferative activity against human HepG2 cells expressing wild-type p53 incubated for 72 hrs by MTT assay. It is filed as functional, cell-based. Particulars: HepG2, 72 h.
Data set [12] relates to MCF7. The data set is described as follows: Antiproliferative activity against human MCF7 cells expressing wild-type p53 incubated for 72 hrs by MTT assay. The format is functional, cell-based. Particulars: MCF7, 72 h.
For data set [13], the system named is ZR-75-1. Nature of the data set: Antiproliferative activity against human ZR-75-1 cells expressing wild-type p53 incubated for 72 hrs by MTT assay. The format is functional, cell-based. The note with it: ZR-75-1, 72 h.
In data set [14] the test system is A-375. The data set is described as follows: Antiproliferative activity against human A-375 cells expressing wild-type p53 incubated for 72 hrs by MTT assay. The format is functional, cell-based. The note with it: A-375, 72 h.
The subject of data set [15] is HCT-116. Nature of the data set: Induction of apoptosis in human HCT-116 cells at 25 uM incubated for 48 hrs by Annexin V-FITC/PI staining based flow cytometry relative to control. The format is functional.
Data set [16] has as its system HCT-116. The data set is described as follows: Induction of cell cycle arrest in human HCT-116 cells assessed as accumulation at G2 phase at 5 uM incubated for 24 hrs by PI staining based flow cytometry (reference value: 17.5 %). It is filed as functional.
Data set [17] concerns HCT-116. The data set is described as follows: Induction of cell cycle arrest in human HCT-116 cells assessed as accumulation at S phase at 20 uM incubated for 24 hrs by PI staining based flow cytometry (reference value: 29.4 %). The format is functional.
Data set [18] relates to HCT-116. The data set is described as follows: Antiproliferative activity against human HCT-116 cells expressing wild-type p53 incubated for 72 hrs by MTT assay. It is filed as functional, cell-based. The note with it: HCT-116, 72 h.
Data set [19] deals with HCT-116. The data set is described as follows: Induction of cell cycle arrest in human HCT-116 cells assessed as accumulation at G1 phase at 20 uM incubated for 24 hrs by PI staining based flow cytometry (reference value: 50.7 %). It is filed as functional.
The subject of data set [20] is HCT-116. The data set is described as follows: Induction of cell cycle arrest in human HCT-116 cells assessed as accumulation at G1 phase at 5 uM incubated for 24 hrs by PI staining based flow cytometry (reference value: 50.7 %). The format is functional.
Data set [21] concerns HeLa. Nature of the data set: Antiproliferative activity against human HeLa cells expressing wild-type p53 incubated for 72 hrs by MTT assay. The format is functional, cell-based.
Data set [22] concerns HCT-116. Nature of the data set: Induction of cell cycle arrest in human HCT-116 cells assessed as accumulation at S phase at 10 uM incubated for 24 hrs by PI staining based flow cytometry (reference value: 29.4 %). The format is functional.
Data set [23] in a line: Antiproliferative activity against human U-87 MG cells expressing wild-type p53 incubated for 72 hrs by MTT assay. It is filed as functional, cell-based, U-87MG ATCC.
Data set [24] is described as follows: Induction of alpha-helical conformation in phosphate buffer at pH 7 at 100 uM by CD analysis. It is filed as physicochemical. Particulars: pH 7, 100 µM.

A word on the IC50: it is the concentration needed to halve the response being measured. One may read the half-life as the time in which the quantity being followed falls by half. With `CSCC[C@H](NC(=O)[C@H](CC(C)C)NC(=O)[C@H](CCC(N)=O)NC(=O)[C@@H]1CCCCNCc2ccc(cc2)CNCCCC[C@H](NC(=O)[C@H](Cc2ccccc2)NC(=O)[C@@H](NC(=O)[C@H](CC(C)C)NC(C)=O)[C@@H](C)O)C(=O)N[C@@H](CCC(=O)O)C(=O)N[C@@H](Cc2ccc(O)cc2)C(=O)N[C@@H](Cc2c[nH]c3ccccc23)C(=O)N1)C(=O)N[C@@H](CCC(N)=O)C(=O)N[C@@H](C)C(=O)N[C@@H](C)C(N)=O`, the Activity was 33.9% in data set [1]; 56.51% in data set [4]; 29% in [5]; 32.7% in data set [6]; 40.5% in data set [9]; 70.13% in data set [10]. Further, the Activity stood at 55.66% in [15]; 23.9% in data set [16]; 32.3% in data set [17]; 34.1% in data set [19]; 33.8% in data set [20]; 36.2% in data set [22]. For the same compound, in data set [24], the Activity worked out at 11%. The same compound displayed an IC50 at 72 h in data set [2] of over 160 µM. For the same compound, the IC50 in [3] was over 160 µM; in data set [7], 6.4 µM; in data set [11], over 160 µM; in [12], 25.3 µM; in data set [13], 7.2 µM; in data set [14] it was over 160 µM. Also, the IC50 in data set [18] stood at 14.6 µM; in data set [21], 91.8 µM; in [23], 7.2 µM. Moreover, the half-life in data set [8] was 3 h.
